Reference: publication PMC12730333 (Biology, 2025)
Where two headings read alike, the source gives them in different places. Marks after values point to notes of the source that are not given here.

Assays:
[1] = system: ex vivo amastigote forms of L. amazonensis LTB0016 strain; test: ROS production by flow cytometry, H2DCFDA, ex vivo amastigotes; format: cell-based, Leishmania amazonensis; conditions: exposed to IC50 (AA 10 µM), 24 h; for VIROS, Ex Vivo Amastigotes High Population / VIROS, Ex Vivo Amastigotes Low Population: MT/MC
[2] = system: promastigote forms of Leishmania amazonensis PH8 strain; test: ROS production by flow cytometry, H2DCFDA, promastigotes; format: cell-based; conditions: exposed to IC50 (AA 10 µM), 24 h
HepG2 cells [3] = system: HepG2 cells; set-up: method as in Araújo et al. 120; conditions: ref Araújo et al. 120; read-out: cytotoxic concentration (compared with CC50 in HepG2); cited from earlier work
[4] = system: ex vivo amastigote forms of L. amazonensis LTB0016 strain; test: Leishmanicidal activity assay on ex vivo amastigotes (Alamar Blue, 24 h); conditions: for IC50: 24 h, read-out: IC50 Ama.; for efficacy compared with MT: concentrations below 0.28 μM; for inhibitory action compared with MT: doses < 0.10 μM
[5] = Cytotoxicity assay (Alamar Blue, 24 h) on HepG2 cells; format: cell-based, human; conditions: human, HepG2 cells, 0.5 × 10^5 cells/well
Experimental: (§1) HepG2 cells (human hepatocellular carcinoma), VERO cells (African green monkey kidney), and J774.G8 macrophages (murine reticulosarcoma) were maintained in DMEM medium, supplemented with 10% FBS, 1% Pen/Str at 37 °C and 5% CO2 [70, 71]. For the cultivation of L929 fibroblasts (murine fibrosarcoma), RPMI 1640 medium without phenol red, supplemented with 2 mM L-glutamine, 10% FBS, and 1% Pen/Str, was used and maintained under the same conditions of temperature and CO2 as above.
(§2) J774.G8, VERO (10^5 cells/well), HepG2, L929 (0.5 × 10^5 cells/well) cells, and MPMs (3 × 10^5 cells/well) were centrifuged, resuspended in medium, plated in 96-well microplates, and incubated for 24 h under cultivation conditions. Subsequently, they were exposed to different concentrations of the compounds, serially diluted in medium to a final volume of 100 µL/well, and incubated for 24 h at 37 °C and 5% CO2. Cell viability was then assessed using the AB, and data were acquired by spectrophotometry. […] Untreated cells were used as negative controls, and cells exposed to the reference compound (MT) were used as positive controls. The Selectivity Index (SI) was calculated using the ratio SI = CC50 (mammalian cells)/IC50 (promastigote or amastigote forms of L. amazonensis).

[6] = Cytotoxicity assay (Alamar Blue, 24 h) on L929 fibroblasts; format: cell-based, murine; conditions: mouse, L929 fibroblasts; for CC50 at 24 h: 0.5 × 10^5 cells/well
Experimental: as §1, §2

[7] = system: promastigote forms of Leishmania amazonensis PH8 strain; test: Leishmanicidal activity assay on promastigotes (Alamar Blue, 24 h); format: cell-based; conditions: 10^6 parasites/mL
Experimental: Promastigote forms of Leishmania amazonensis (IFLA/BR/1967/PH8) were obtained from the Instituto Oswaldo Cruz Leishmania collection (CLIOC/Fiocruz). These cultures were maintained in Schneider’s Insect Medium, supplemented with 20% FBS and 1 μL/mL of Pen/Str at 26 °C. In vitro passages were conducted weekly, with promastigotes harvested during the late logarithmic phase for experiments on the 5th day of growth (Figure S1A).
MT was employed as the reference drug.

[8] = Cytotoxicity assay (Alamar Blue, 24 h) on murine peritoneal macrophages; format: cell-based, Swiss Webster mice; conditions: male, Swiss Webster, mouse, murine peritoneal macrophages (MPMs, primary cells); for CC50 at 24 h: 3 × 10^5 cells/well
Experimental: (§3) Murine peritoneal macrophages—MPMs (primary cells)—were isolated from male Swiss Webster mice stimulated with 1 mL of 3% Brewer’s thioglycollate medium, administered intraperitoneally. After 96 h, the animals were euthanized, and the MPMs were collected by peritoneal lavage with approximately 10 mL of RPMI 1640 medium. The cell suspension was centrifuged at 382× g for 10 min, and the pellet was resuspended in medium supplemented with 5% FBS, 1% Pen/Str, and 2 mM L-glutamine. All cell cultures were maintained at 37 °C and 5% CO2 [73]. For the experiments, all cell types were cultured until confluency.
as §2

VERO cells = test: Cytotoxicity assay (Alamar Blue, 24 h) on VERO cells; format: cell-based, African green monkey; conditions: for CC50: 10^5 cells/well
Experimental: as §1, §2

[9] = as above; format: cell-based, African green monkey; conditions: African green monkey, VERO cells, 10^5 cells/well
Experimental: as §1, §2

[10] = Cytotoxicity assay (Alamar Blue, 24 h) on J774.G8 macrophages; format: cell-based, murine; conditions: mouse, J774.G8 macrophages, 10^5 cells/well, read-out: CC50 J744.G8
Experimental: as §1, §2

[11] = system: Leishmania amazonensis promastigote forms (PH8 strain); conditions: exposed to IC50, 24–168 h
Experimental: Promastigotes were kept at 26 °C, whereas amastigotes were kept at 32 °C. After 24 h, parasite viability was assessed using the AB colorimetric method, and the data were analyzed using a spectrophotometer as previously described [74]. […] Wells with medium and without parasites were used as blanks, and wells with medium and untreated parasites were used as negative controls. MT was employed as the reference drug.

HepG2 cells [12] = test: Cytotoxicity assay (Alamar Blue, 24 h) on HepG2 cells; format: cell-based, human; conditions: 0.5 × 10^5 cells/well
Experimental: as §1, §2

[13] = system: ex vivo amastigote forms of L. amazonensis LTB0016 strain; test: Mitochondrial membrane potential (ΔΨm) by flow cytometry, TMRE, ex vivo amastigotes; conditions: for TMRE MFI, ex vivo Amastigotes High Population / TMRE MFI, ex vivo Amastigotes Low Population / VIΔΨm, ex vivo Amastigotes High Population / VIΔΨm, ex vivo Amastigotes Low Population: exposed to IC50, 24 h; for VIΔΨm, ex vivo Amastigotes High Population / VIΔΨm, ex vivo Amastigotes Low Population: (MT − MC)/MC
[14] = system: promastigote forms of Leishmania amazonensis PH8 strain; test: Mitochondrial membrane potential (ΔΨm) by flow cytometry, TMRE, promastigotes; conditions: exposed to IC50, 24 h; for VIΔΨm, Promastigotes High Population / VIΔΨm, Promastigotes Low Population: (MT − MC)/MC; for VIΔΨm, Promastigotes Low Population: negative = depolarization
L929 cells = test: Cytotoxicity assay (Alamar Blue, 24 h) on L929 fibroblasts; format: cell-based, murine; conditions: for CC50: 0.5 × 10^5 cells/well
Experimental: as §1, §2

[15] = system: murine peritoneal macrophages—MPMs; test: Cytotoxicity assay (Alamar Blue, 24 h) on murine peritoneal macrophages; format: cell-based, Swiss Webster mice; conditions: 3 × 10^5 cells/well
Experimental: as §3, §2

J774.G8 cells = test: Cytotoxicity assay (Alamar Blue, 24 h) on J774.G8 macrophages; format: cell-based, murine; conditions: 10^5 cells/well, read-out: CC50 J744.G8
Experimental: as §1, §2

[16] = ex vivo amastigotes, 10^6 parasites/mL

Compound | H2DCFDA MFI, Ex Vivo Amastigotes High Population [1] | H2DCFDA MFI, Ex Vivo Amastigotes Low Population [1] | VIROS, Ex Vivo Amastigotes High Population [1] | VIROS, Ex Vivo Amastigotes Low Population [1] | H2DCFDA MFI, Promastigotes High Population [2] | H2DCFDA MFI, Promastigotes Low Population [2] | IC50 ([4]; Leishmania amazonensis) | CC50 at 24 h [5] | time from which proliferation was significantly (p < 0.05) reduced compared to MT [11] | inhibitory action compared with MT ([4]; ex vivo amastigotes) | CC50 (HepG2 cells [12]) | TMRE MFI, ex vivo Amastigotes High Population [13] | TMRE MFI, ex vivo Amastigotes Low Population [13] | VIΔΨm, ex vivo Amastigotes High Population [13] | VIΔΨm, ex vivo Amastigotes Low Population [13] | IC50 [7] | TMRE MFI, Promastigotes High Population [14] | TMRE MFI, Promastigotes Low Population [14] | VIΔΨm, Promastigotes High Population [14] | VIΔΨm, Promastigotes Low Population [14] | other results
CCCCCC[C@H]1C(=O)O[C@H](C)[C@H](NC(=O)c2cccc(NC=O)c2O)C(=O)O[C@@H](C)[C@@H]1OC(=O)CC(C)C [AA, Antimycin A, reference compound] | 143,227.25 | 3011.23 | 0.60 ± 0.53 | 1.14 ± 0.38 | 890,705.80 | 19,775.40 | – | – | – | – | – | – | – | – | – | – | – | – | – | – | VIROS, Promastigotes Low Population ([2]; MT/MC): 0.52 ± 0.13; VIROS, Promastigotes High Population ([2]; MT/MC (fold of control)): 2.07 ± 0.23
C[C@@H]1[C@H](O)[C@@H](C)/C=C/C=C/C=C/C=C/C=C/C=C/C=C/[C@H](O[C@@H]2O[C@H](C)[C@@H](O)[C@H](N)[C@@H]2O)C[C@@H]2O[C@](O)(C[C@@H](O)C[C@@H](O)[C@H](O)CC[C@@H](O)C[C@@H](O)CC(=O)O[C@H]1C)C[C@H](O)[C@H]2C(=O)O [Amphotericin B] | – | – | – | – | – | – | – | – | – | – | – | – | – | – | – | – | – | – | – | – | CC50 (HepG2 cells [3]): 35.2 µM
CCCCCCCCCCCCCCCCOP(=O)([O-])OCC[N+](C)(C)C [Miltefosine, miltefosine, reference compound] | – | – | – | – | – | – | 0.97 ± 0.4 µM | 181 ± 11.3 µM | – | – | – | – | – | – | – | – | – | – | – | – | CC50 at 24 h [6]: 113 ± 18.2 µM; IC50 ([7]; Leishmania amazonensis): 23.2 ± 2.55 µM; CC50 at 24 h [8]: 103 ± 4.77 µM; viability at 24 h ([8]; exposures up to 70 μM): > 50%; viability of VERO cells (VERO cells; concentrations ≥ 300 μM): eliminated the viability; CC50 at 24 h [9]: 168 ± 2.75 µM; CC50 at 24 h [10]: 156 ± 8.48 µM
CCNc1cc2[s+]c3cc(NCC)c(C)cc3nc2cc1C [NMB, new methylene blue] | 131,669.43 | 2940.57 | 0.84 ± 0.51 | 1.62 ± 0.90 | 1,512,521.00 * | 31,489.80 | 2.66 ± 0.95 µM | > 70 µM | ≥ 72 h | more inhibitory action | 71.6 ± 3.15 µM | 277,557.80 * | 3770.37 | −0.43 ± 0.20 | −0.27 ± 0.06 | 5.42 µM | 65,590.87 | 4095.05 | 0.11 ± 0.08 | −0.14 ± 0.20 | efficacy compared with MT ([4]; ex vivo amastigotes): surpassed the efficacy of MT; CC50 at 24 h [6]: 280.2 ± 2.19 µM; viability at 24 h ([6]; lower concentrations (37–100 μM), read-out: viability of L929 cells): > 50%; loss of potential (ΔΨm) in HP ex vivo amastigotes / mitochondrial depolarization ([13]; IC50, 24 h): up to 61%; IC50 ([7]; Leishmania amazonensis): < 5.5 µM; CC50 at 24 h [8]: 31.3 ± 5.72 µM; CC50 at 24 h [9]: 44.7 ± 3.4 µM; CC50 at 24 h [10]: 68.5 ± 2.12 µM
CCNc1cc2[s+]c3cc(NCC)c(C)cc3nc2cc1C.F[P-](F)(F)(F)(F)F.F[P-](F)(F)(F)(F)F.F[P-](F)(F)(F)(F)F.F[P-](F)(F)(F)(F)F.N#[O+].[Ru+2].c1ccc(-c2ccccn2)nc1.c1ccc(-c2ccccn2)nc1 [NMB-B, new methylene blue B] | 131,896.27 | 2116.87 | 0.85 ± 0.49 | 1.11 ± 0.48 | 2,639,177.00 ** | 39,191.97 | – | – | ≥ 48 h | more inhibitory action | 34.2 ± 7.31 µM | 410,112.30 | 4174.80 | −0.59 ± 0.21 | −0.31 ± 0.03 | 5.48 µM | 74,562.13 | 4070.50 | 0.27 ± 0.16 | −0.13 ± 0.09 | IC50 [4, 16]: 3.16 ± 0.37 µM; CC50 (L929 cells): 270 ± 8.48 µM; viability of L929 cells (L929 cells; lower concentrations (37–100 μM)): > 50%; decrease of ΔΨm considering both subpopulations ([13]; ex vivo amastigotes, LP plus HP, IC50, 24 h): 90%; CC50 [15]: 65.9 ± 1.69 µM; CC50 (VERO cells): 248 ± 32.9 µM; CC50 (J774.G8 cells): 130 ± 7.35 µM
CCNc1cc2[s+]c3cc(NCC)c(C)cc3nc2cc1C.F[P-](F)(F)(F)(F)F.F[P-](F)(F)(F)(F)F.F[P-](F)(F)(F)(F)F.F[P-](F)(F)(F)(F)F.N#[O+].[Ru+2].c1cnc2c(c1)ccc1cccnc12.c1cnc2c(c1)ccc1cccnc12 [NMB-P, new methylene blue P] | 140,291.57 | 3063.17 | 0.90 ± 0.45 | 1.27 ± 0.45 | 2,325,902.50 ** | 34,607.80 | – | – | ≥ 96 h | more inhibitory action | 35.1 ± 2.08 µM | 642,051.43 | 7215.47 | 0.39 ± 0.13 | 0.21 ± 0.04 | 2.84 µM | 86,029.23 | 3359.03 * | 0.49 ± 0.36 | −0.28 ± 0.03 | efficacy compared with MT ([4]; ex vivo amastigotes): surpassed the efficacy of MT; IC50 [4, 16]: 0.46 ± 0.34 µM; CC50 (L929 cells): 150 ± 12 µM; CC50 [15]: 71.6 ± 1.85 µM; CC50 (VERO cells): 240 ± 27.6 µM; CC50 (J774.G8 cells): 69.8 ± 10.4 µM
